From paper PMC9146984, “A Novel Proline-Rich Cathelicidin from the Alpaca Vicugna pacos with Potency to Combat Antibiotic-Resistant Bacteria: Mechanism of Action and the Functional Role of the C-Terminal Region” (Membranes, 2022) come the findings set out here.

The subject of one test is P. aeruginosa ATCC 27853. As to the kind of experiment: Antimicrobial assay (MIC). To be noted: Mueller-Hinton broth supplemented with 0.9% NaCl. It counts as cell-based, Pseudomonas aeruginosa. The method, then: (§1) The reduction of resazurin to resorufin was measured.
The next test concerns P. aeruginosa PAO1. The test can be described thus: Antimicrobial assay (MIC). Conditions: Mueller-Hinton broth supplemented with 0.9% NaCl. It is filed as cell-based, Pseudomonas aeruginosa. On the procedure: as §1
In a further test the test system is human cells. The test can be described thus: Cytokine response (multiplex xMAP immunoassay), cell type not given. To be noted: 2 µM peptide, 24 h, control 1813 pg/mL. It is filed as cell-based. On the procedure:
Acute monocytic leukemia THP-1 line (ATCC TIB-202) was cultured in complete RPMI 1640 medium (Invitrogen, Waltham, MA, USA) containing 10% FBS, 1× antibiotic-antimycotic solution (Invitrogen, Waltham, MA, USA), and 0.05 mM β-mercaptoethanol, in the CO2-incubator (5% CO2, 37 °C). THP-1 cells were differentiated into proinflammatory macrophages (MΦ1) according to the previously reported protocol. Primary peripheral blood mononuclear cells (PBMC) collected from a healthy donor were purchased from American Type Culture Collection (ATCC PCS-800-011), thawed, and seeded into a 96-well plate one day prior to the experiment at a density of 2 × 10^5 cells/well. […] 27 analytes were measured at a protein level by multiplex xMAP technology using the MILLIPLEX MAP Human Cytokine/Chemokine Magnetic Bead Immunology Panel kit (HCYTOMAG-60K-27, Merck, Darmstadt, Germany): eotaxin-1/CCL11, TGFα, GM-CSF, IFNα2, IFNγ, IL-10, IL-12p40, IL-12p70, IL-13, IL-15, sCD40L, IL-17A, IL-1RA, IL-1α, IL-9, IL-1β, IL-2, IL-3, IL-4, IL-5, IL-6, IL-7, IL-8/CXCL8, IP-10/CXCL10, RANTES/CCL5, TNFα, TNFβ. Multiplex-based assay read-out was performed using the MAGPIX system (Merck) with the xPONENT 4.2 software (Merck, Darmstadt, Germany) in accordance with the manufacturer’s instruction with overnight incubation of the samples with primary antibodies. […]

In another test the test system is E. coli MDR CI 1057. On the procedure: (§2) Bacterial test cultures were grown in the Mueller-Hinton broth (MH; Sigma, St. Louis, MO, USA) at 37 °C to mid-log phase and then diluted with the 2× MH medium supplemented with 1.8% NaCl or without salt so that to reach a final cell concentration of 10^6 CFU/mL. 50 µL of the obtained bacterial suspension were added to aliquots of 50 µL of the peptide solutions serially diluted with sterilized 0.1% bovine serum albumin (BSA) in 96-well flat-bottom polystyrene microplates (Eppendorf #0030730011, Hamburg, Germany). […] To verify MIC values, the respiratory activity of the bacteria was determined. Briefly, 20 µL of 0.1 mg/mL resazurin (a redox indicator; Sigma, St. Louis, MO, USA) was added to the wells after 24 h of incubation, and the plate was incubated for an additional two hours. The reduction of resazurin to resorufin was measured. […] The results were expressed as the median values determined based on at least three independent experiments performed in triplicate.
(§3) Resistance induction experiments were performed using the previously described method. Briefly, on day one, the overnight culture of wild-type bacteria was diluted with the 2× MH broth supplemented with 1.8% NaCl to reach a final cell concentration of 10^6 CFU/mL. 50 µL of the obtained bacterial suspension were added to aliquots of 50 µL of the peptide solutions serially diluted with the sterilized 0.1% BSA in 96-well flat-bottom polystyrene microplates. After incubation for 20 ± 2 h at 37 °C and 950 rpm, MICs were determined as described above. For each subsequent daily transfer, 2–4 μL of the inoculum taken from the first well containing a sub-inhibitory drug concentration were diluted with 2 mL of the fresh 2× MH broth supplemented with 1.8% NaCl. […] 14 repeated passages in the presence of antimicrobial agents were made for each bacterial strain during the experiment. Bacteria that grew at the highest concentration of AMPs on the final day were passaged a further 3 times on drug-free agar plates before determining the final MIC value.

The subject of test [1] is VicBac[1–22]-resistant E. coli MDR 1057 strain. Conditions: Mueller-Hinton broth supplemented with 0.9% NaCl; strain selected 14 days with VicBac[1-22]; cross-resistance. On the procedure:
as §2, §3

In another test the test system is T-/B-/NK-lymphocytes. As to the kind of experiment: Cytokine response (multiplex xMAP immunoassay). Conditions: 2 µM peptide, 24 h. It counts as cell-based, human. The method, then: (§4) Acute monocytic leukemia THP-1 line (ATCC TIB-202) was cultured in complete RPMI 1640 medium (Invitrogen, Waltham, MA, USA) containing 10% FBS, 1× antibiotic-antimycotic solution (Invitrogen, Waltham, MA, USA), and 0.05 mM β-mercaptoethanol, in the CO2-incubator (5% CO2, 37 °C). THP-1 cells were differentiated into proinflammatory macrophages (MΦ1) according to the previously reported protocol. Primary peripheral blood mononuclear cells (PBMC) collected from a healthy donor were purchased from American Type Culture Collection (ATCC PCS-800-011), thawed, and seeded into a 96-well plate one day prior to the experiment at a density of 2 × 10^5 cells/well. Two different cell subpopulations (monocytes and T-/B-/NK-lymphocytes) were isolated from PBMC based on their adherence ability. Macrophages MΦ1 were washed out and seeded into 96-well plates at a density of 10^5 cells/well one day prior to the experiment. The next day medium in each well was replaced by a fresh complete RPMI 1640 medium with or without 2 μM of cathelicidin (VicBac[1–22] or VicBac[1–39]). Cell cultures were kept in a CO2 incubator (5% CO2, 37 °C) for 24 h. Culture supernatants were collected 24 h later and stored at −70 °C degrees less than one week prior to the assessment of analytes. 27 analytes were measured at a protein level by multiplex xMAP technology using the MILLIPLEX MAP Human Cytokine/Chemokine Magnetic Bead Immunology Panel kit (HCYTOMAG-60K-27, Merck, Darmstadt, Germany): eotaxin-1/CCL11, TGFα, GM-CSF, IFNα2, IFNγ, IL-10, IL-12p40, IL-12p70, IL-13, IL-15, sCD40L, IL-17A, IL-1RA, IL-1α, IL-9, IL-1β, IL-2, IL-3, IL-4, IL-5, IL-6, IL-7, IL-8/CXCL8, IP-10/CXCL10, RANTES/CCL5, TNFα, TNFβ. Multiplex-based assay read-out was performed using the MAGPIX system (Merck) with the xPONENT 4.2 software (Merck, Darmstadt, Germany) in accordance with the manufacturer’s instruction with overnight incubation of the samples with primary antibodies. The final analysis was carried out with the MILLIPLEX Analyst v5.1 software (Merck). Measurements were performed twice for each sample. The release of the analytes in control and experimental samples were compared by unpaired two-sample t-test using GraphPad Prism v.8.0.1. The p values ≤ 0.05 were considered significant.

A further test relates to primary monocytes. As to the kind of experiment: Cytokine response (multiplex xMAP immunoassay). It is filed as cell-based, human. Conditions: 2 µM peptide, 24 h. The method, then:
as §4

The test system of test [2] is proinflammatory macrophages (MΦ1) from THP-1. The test can be described thus: Cytokine response (multiplex xMAP immunoassay). Conditions: 2 µM peptide, 24 h. It is filed as cell-based, human. The method, then: as §4
The subject of the next test is PBMC. The test can be described thus: Cytokine response (multiplex xMAP immunoassay). It counts as cell-based, human. To be noted: 2 µM peptide, 24 h. On the procedure: as §4

In brackets after ≈: the same amount, converted by molar mass. Where a SMILES comes first, the peptide text is derived from it.

`CC[C@H](C)[C@H](NC(=O)[C@H](CCCNC(=N)N)NC(=O)[C@@H](N)CCCNC(=N)N)C(=O)N[C@@H](CCCNC(=N)N)C(=O)N[C@@H](CCCNC(=N)N)C(=O)N1CCC[C@H]1C(=O)N[C@@H](CCCNC(=N)N)C(=O)N[C@@H](CC(C)C)C(=O)N1CCC[C@H]1C(=O)N[C@@H](CCCNC(=N)N)C(=O)N1CCC[C@H]1C(=O)N[C@@H](CCCNC(=N)N)C(=O)N[C@H](C(=O)N1CCC[C@H]1C(=O)N[C@@H](CCCNC(=N)N)C(=O)N1CCC[C@H]1C(=O)N[C@@H](CCCNC(=N)N)C(=O)N[C@H](C(=O)N1CCC[C@H]1C(=O)N1CCC[C@H]1C(=O)N[C@@H](CCCNC(=N)N)C(=O)N[C@H](C(=O)N1CCC[C@H]1C(=O)N[C@@H](CCCNC(=N)N)C(=O)N1CCC[C@H]1C(=O)N[C@H](C(=O)N[C@@H](CC(C)C)C(=O)N1CCC[C@H]1C(=O)N1CCC[C@H]1C(=O)N1CCC[C@H]1C(=O)N[C@@H](CCCNC(=N)N)C(=O)N[C@H](C(=O)N1CCC[C@H]1C(=O)N[C@@H](Cc1ccccc1)C(=O)N1CCC[C@H]1C(=O)N[C@@H](CCCNC(=N)N)C(=O)N[C@@H](Cc1ccccc1)C(=O)N1CCC[C@H]1C(=O)N[C@@H](CCCNC(=N)N)C(N)=O)C(C)C)C(C)C)[C@@H](C)CC)[C@@H](C)CC)C(C)C` [VicBac[1-39]] (H-RRIRRPRLPRPRVPRPRIPPRIPRPVLPPPRVPFPRFPR-NH2; N-terminus assumed): the “MIC, P. aeruginosa ATCC 27853” value against P. aeruginosa ATCC 27853 amounted to 4 µM (≈ 19.3 µg/mL). The “MIC, P. aeruginosa PAO1” value in the test with P. aeruginosa PAO1 worked out at 8 µM (≈ 38.5 µg/mL). The “Production of IL-8/CXCL8” value with human cells was found to be 1034 pg/mL. Further, the “MIC, E. coli MDR CI 1057” value in the test on E. coli MDR CI 1057 (Mueller-Hinton broth supplemented with 0.9% NaCl (Figure 3A)) was 1 µM (≈ 4.82 µg/mL). In addition, in the test on E. coli MDR CI 1057 (Mueller-Hinton broth supplemented with 0.9% NaCl, after 14 passages without antimicrobial agents), the “Minimum inhibitory concentration E.coli MDR 1057 14 days w/o AMP” value turned out to be 1 µM (≈ 4.82 µg/mL). In the test on E. coli MDR CI 1057 (Mueller-Hinton broth supplemented with 0.9% NaCl, before passages), the “Minimum inhibitory concentration E.coli MDR 1057 0 days” value turned out to be 1 µM (≈ 4.82 µg/mL). The “Minimum inhibitory concentration E.coli MDR 1057 14 days with VicBac [1-22]” value in test [1] is 2 µM. The “CXCL10/IP-10 production in the T/B/NK culture” value in the test with T-/B-/NK-lymphocytes is on record as “elevated”. Besides, the “Production of TNFα by monocytes” value in the test with primary monocytes (control 18.47 pg/mL, two biological replications) is 11.41 pg/mL. Also, the “IL-1RA on primary monocytes” value with primary monocytes (control 163.77 pg/mL) is 37.82 pg/mL. Besides, the “Production of RANTES/CCL5 on primary monocytes” value in the test with primary monocytes (control 284.28 pg/mL) stood at 71.5 pg/mL. Besides, in [2] (control 12.94 pg/mL, significance level quite low), the “TNFα production by macrophages” value is listed as 28.68 pg/mL. Further, in test [2] (control 25.21 pg/mL), the “IL-1RA on pro-inflammatory macrophages” value is on record as 9.47 pg/mL. Further, the “IL-1RA on PBMC” value with PBMC (control 95.52 pg/mL) turned out to be 18.79 pg/mL. Besides, the “Production of RANTES/CCL5 on PBMC” value in the test with PBMC (control 286.63 pg/mL) was found to be 54.72 pg/mL.
